Experimental data from patent US20240269139A1, “COMPOUNDS FOR TARGETED PROTEIN DEGRADATION OF KINASES” (DANA-FARBER CANCER INSTITUTE, INC., priority 2020, published 2024).
Values joined by “and” are separate entries in the source; they are usually repeats but may differ in a detail not shown here. Equal values may be shown once. Read-outs that look alike come from different tables or passages of the source.

Tests used:
Type in all cases: cell-based
[1] = target: protein kinases (human kinome) (Homo sapiens, UniProt P50613); conditions: for logFC: CDK7 (P50613) protein abundance, degrader vs DMSO, down; for logFC CDK7: CDK7 P50613
[2] = target: protein kinases (human kinome) (Homo sapiens, UniProt P53667); conditions: LIMK1 (P53667-1)
[3] = target: protein kinases (human kinome) (Homo sapiens, UniProt Q00537); conditions: for logFC of CDK17: Accession Q00537; for logFC CDK17 (Q00537): direction of change down
[4] = target: T1, protein kinases (human kinome) (Homo sapiens, UniProt Q12851); conditions: for logFC MAP4K2 (Q12851): direction down; for logFC: MAP4K2 (Q12851)
T1 sequence (Q12851 1-820): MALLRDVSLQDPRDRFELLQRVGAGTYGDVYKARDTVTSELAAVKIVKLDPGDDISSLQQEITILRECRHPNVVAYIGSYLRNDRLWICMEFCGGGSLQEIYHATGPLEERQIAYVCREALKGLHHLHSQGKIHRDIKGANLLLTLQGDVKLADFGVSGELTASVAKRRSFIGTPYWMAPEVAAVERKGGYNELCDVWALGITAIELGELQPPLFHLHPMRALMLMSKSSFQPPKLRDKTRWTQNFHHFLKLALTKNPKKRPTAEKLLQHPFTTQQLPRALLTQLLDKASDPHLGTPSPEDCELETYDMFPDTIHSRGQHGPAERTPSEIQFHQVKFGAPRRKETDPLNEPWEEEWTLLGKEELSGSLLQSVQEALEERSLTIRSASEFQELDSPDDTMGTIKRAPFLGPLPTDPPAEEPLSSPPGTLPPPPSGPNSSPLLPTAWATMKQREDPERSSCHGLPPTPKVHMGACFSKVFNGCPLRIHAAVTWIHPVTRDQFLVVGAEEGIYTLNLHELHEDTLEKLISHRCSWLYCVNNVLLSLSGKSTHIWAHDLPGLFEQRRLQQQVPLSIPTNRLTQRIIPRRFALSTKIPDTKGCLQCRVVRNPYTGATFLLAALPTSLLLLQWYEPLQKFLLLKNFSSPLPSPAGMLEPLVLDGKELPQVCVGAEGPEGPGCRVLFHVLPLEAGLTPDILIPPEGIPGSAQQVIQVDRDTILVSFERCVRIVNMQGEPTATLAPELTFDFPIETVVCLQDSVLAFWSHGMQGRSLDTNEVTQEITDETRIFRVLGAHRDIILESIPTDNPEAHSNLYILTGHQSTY

[5] = target: protein kinases (human kinome) (Homo sapiens, UniProt O43683); conditions: for logFC: BUB1 (O43683), experiment wp076; for logFC BUB1 (O43683): Experiment wp076, direction down
[6] = target: T2, protein kinases (human kinome) (Homo sapiens, UniProt Q8TAS1); conditions: experiment wp076
T2 sequence (Q8TAS1 1-419): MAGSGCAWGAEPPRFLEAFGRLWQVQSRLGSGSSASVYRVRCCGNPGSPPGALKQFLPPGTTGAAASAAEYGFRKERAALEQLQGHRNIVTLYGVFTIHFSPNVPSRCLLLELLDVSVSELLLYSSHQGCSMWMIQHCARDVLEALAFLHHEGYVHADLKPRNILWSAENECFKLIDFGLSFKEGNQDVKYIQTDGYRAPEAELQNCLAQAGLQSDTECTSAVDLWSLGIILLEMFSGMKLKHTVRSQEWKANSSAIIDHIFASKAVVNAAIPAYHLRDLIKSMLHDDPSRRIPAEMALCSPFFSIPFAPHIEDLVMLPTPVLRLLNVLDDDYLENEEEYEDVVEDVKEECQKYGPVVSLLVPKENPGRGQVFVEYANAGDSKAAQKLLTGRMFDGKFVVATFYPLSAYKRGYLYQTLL

[7] = target: protein kinases (human kinome) (Homo sapiens, UniProt Q9HBH9); conditions: for logFC MKNK2 (Q9HBH9-1): direction down; for logFC: MKNK2 (Q9HBH9-1)
[8] = direction down, experiment wp137
[9] = direction down, experiment wp147, 1 uM
[10] = direction down, experiment wp147, 2 uM
[11] = direction down, experiment wp147, 4 uM
[12] = Accession Q8TAS1, direction down

Sequence of protein kinases (human kinome) (Homo sapiens, UniProt Q9HBH9) (Q9HBH9 whole entry): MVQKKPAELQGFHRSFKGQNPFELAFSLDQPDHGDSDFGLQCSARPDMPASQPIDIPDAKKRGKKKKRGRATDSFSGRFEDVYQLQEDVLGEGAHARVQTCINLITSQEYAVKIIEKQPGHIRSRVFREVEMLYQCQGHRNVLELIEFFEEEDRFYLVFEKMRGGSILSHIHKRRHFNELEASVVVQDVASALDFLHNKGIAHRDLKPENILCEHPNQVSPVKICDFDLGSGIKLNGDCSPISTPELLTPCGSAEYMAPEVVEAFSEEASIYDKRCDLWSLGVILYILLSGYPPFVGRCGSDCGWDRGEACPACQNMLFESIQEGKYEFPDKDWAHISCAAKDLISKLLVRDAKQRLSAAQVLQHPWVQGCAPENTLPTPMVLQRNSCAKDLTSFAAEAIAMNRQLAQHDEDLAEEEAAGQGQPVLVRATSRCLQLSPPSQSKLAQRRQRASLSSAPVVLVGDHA
Sequence of protein kinases (human kinome) (Homo sapiens, UniProt Q00537) (Q00537 whole entry): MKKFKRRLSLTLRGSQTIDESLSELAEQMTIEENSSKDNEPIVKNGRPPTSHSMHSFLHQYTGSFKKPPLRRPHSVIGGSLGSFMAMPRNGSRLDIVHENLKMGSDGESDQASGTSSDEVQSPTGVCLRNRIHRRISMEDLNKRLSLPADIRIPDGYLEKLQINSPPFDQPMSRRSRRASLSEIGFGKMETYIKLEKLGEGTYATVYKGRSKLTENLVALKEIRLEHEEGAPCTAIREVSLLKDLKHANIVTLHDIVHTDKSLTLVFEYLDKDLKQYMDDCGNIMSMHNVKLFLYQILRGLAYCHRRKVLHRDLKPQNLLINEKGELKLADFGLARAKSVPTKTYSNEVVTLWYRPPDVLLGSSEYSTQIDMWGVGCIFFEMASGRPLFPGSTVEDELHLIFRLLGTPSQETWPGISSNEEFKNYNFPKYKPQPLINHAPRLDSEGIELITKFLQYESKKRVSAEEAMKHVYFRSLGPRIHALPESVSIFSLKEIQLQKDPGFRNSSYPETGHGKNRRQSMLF
Sequence of protein kinases (human kinome) (Homo sapiens, UniProt O43683) (O43683 whole entry): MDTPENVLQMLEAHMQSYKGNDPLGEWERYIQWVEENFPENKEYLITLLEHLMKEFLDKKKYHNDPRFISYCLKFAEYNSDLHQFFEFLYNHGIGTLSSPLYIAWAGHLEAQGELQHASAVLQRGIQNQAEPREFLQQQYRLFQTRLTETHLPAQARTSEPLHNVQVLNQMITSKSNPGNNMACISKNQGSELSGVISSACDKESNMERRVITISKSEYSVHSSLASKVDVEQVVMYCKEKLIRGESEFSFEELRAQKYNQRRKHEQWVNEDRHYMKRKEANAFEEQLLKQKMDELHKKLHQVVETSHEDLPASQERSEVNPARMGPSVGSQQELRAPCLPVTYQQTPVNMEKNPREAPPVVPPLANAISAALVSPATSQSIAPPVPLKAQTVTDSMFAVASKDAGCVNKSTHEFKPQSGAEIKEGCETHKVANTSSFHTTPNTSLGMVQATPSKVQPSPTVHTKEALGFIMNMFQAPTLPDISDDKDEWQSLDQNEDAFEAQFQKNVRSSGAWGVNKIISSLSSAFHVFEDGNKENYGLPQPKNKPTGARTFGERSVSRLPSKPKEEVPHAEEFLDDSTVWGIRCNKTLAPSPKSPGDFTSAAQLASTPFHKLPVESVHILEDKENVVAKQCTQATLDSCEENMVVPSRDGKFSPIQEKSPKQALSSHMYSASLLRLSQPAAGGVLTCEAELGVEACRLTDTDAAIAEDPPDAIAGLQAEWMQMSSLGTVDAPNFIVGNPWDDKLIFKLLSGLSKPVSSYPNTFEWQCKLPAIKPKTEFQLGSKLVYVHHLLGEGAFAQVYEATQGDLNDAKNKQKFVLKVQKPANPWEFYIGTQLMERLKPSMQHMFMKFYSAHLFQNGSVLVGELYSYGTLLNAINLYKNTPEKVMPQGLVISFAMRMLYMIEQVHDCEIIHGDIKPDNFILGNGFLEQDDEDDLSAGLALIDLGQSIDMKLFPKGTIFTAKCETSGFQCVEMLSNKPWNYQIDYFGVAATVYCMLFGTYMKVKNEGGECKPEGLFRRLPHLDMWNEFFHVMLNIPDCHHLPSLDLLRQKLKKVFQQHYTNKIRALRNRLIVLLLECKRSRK
Sequence of protein kinases (human kinome) (Homo sapiens, UniProt P53667) (P53667 whole entry): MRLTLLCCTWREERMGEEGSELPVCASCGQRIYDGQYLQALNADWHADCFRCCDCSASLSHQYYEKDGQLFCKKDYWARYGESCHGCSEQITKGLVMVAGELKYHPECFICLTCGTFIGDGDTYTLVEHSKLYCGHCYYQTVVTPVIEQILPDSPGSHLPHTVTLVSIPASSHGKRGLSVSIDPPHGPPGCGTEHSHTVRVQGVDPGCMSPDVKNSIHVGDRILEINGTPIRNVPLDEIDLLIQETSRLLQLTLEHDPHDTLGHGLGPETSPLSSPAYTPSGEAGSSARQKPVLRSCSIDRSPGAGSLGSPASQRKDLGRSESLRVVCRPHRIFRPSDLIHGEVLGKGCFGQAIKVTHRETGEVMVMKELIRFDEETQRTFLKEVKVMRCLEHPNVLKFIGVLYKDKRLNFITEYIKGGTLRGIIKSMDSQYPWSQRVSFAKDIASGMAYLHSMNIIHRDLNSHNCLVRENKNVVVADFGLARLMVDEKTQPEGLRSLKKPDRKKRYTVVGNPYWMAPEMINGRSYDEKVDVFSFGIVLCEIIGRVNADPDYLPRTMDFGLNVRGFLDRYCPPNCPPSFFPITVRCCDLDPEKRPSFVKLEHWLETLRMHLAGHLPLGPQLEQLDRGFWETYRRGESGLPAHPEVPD
Sequence of protein kinases (human kinome) (Homo sapiens, UniProt P50613) (P50613 whole entry): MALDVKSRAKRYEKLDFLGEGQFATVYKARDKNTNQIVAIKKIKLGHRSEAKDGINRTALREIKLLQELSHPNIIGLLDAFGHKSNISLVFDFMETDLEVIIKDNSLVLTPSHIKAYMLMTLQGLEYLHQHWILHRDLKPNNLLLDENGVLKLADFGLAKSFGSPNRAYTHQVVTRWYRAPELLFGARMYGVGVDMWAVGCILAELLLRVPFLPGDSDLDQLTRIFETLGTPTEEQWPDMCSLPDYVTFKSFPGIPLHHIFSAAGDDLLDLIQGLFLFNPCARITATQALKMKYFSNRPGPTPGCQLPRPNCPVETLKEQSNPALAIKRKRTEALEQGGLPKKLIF

CNC(=O)c1ccccc1Nc1cc(Nc2ccc(N3CCN(CCOCCOCCNC(=O)CNc4cccc5c4C(=O)N(C4CCC(=O)NC4=O)C5=O)CC3)cc2OC)ncc1C(F)(F)F (centres unmarked) [MFH.5.103.1]
logFC [1]: −0.5098 | logFC CDK7 ([1]; experiment wp076): −0.5098

Nc1ncnc2c1c(-c1ccc(Oc3ccccc3)cc1)nn2[C@H]1CC[C@H](N2CCN(CCOCCNC(=O)CNc3cccc4c3C(=O)N(C3CCC(=O)NC3=O)C4=O)CC2)CC1 (some centres unmarked) [SB1.G.181]
logFC LIMK1 ([2]; direction down, experiment wp071): −0.686 | logFC LIMK1 ([2]; experiment wp071, down): −0.686

CC(C)(C)c1nc(-c2cccc(NS(=O)(=O)c3c(F)cccc3F)c2F)c(-c2ccnc(NCCOCCNC(=O)CCOCCOCCNc3cccc4c3C(=O)N(C3CCC(=O)NC3=O)C4=O)n2)s1 (centres unmarked) [DD.03.106]
logFC of CDK17 ([3]; experiment wp047): −0.72 | logFC of CDK17 ([3]; experiment wp147, 1 uM): −0.7615 | logFC of CDK17 ([3]; experiment wp147, 4 uM): −0.6232 | logFC CDK17 (Q00537) ([3]; experiment wp047): −0.72 | logFC CDK17 (Q00537) ([3]; experiment wp147, 1 uM): −0.7615 | logFC CDK17 (Q00537) ([3]; experiment wp147, 2 uM): −0.8288 | logFC CDK17 (Q00537) ([3]; experiment wp147, 4 uM): −0.6232 | logFC LIMK1 ([2]; direction down, experiment wp047): −1.637 | logFC LIMK1 [2, 8]: −1.981 | logFC LIMK1 [2, 9]: −2.959 | logFC LIMK1 [2, 10]: −2.2 | logFC LIMK1 [2, 11]: −0.637 | logFC LIMK1 ([2]; experiment wp047, down): −1.637 | logFC LIMK1 ([2]; experiment wp137, down): −1.981 | logFC LIMK1 ([2]; experiment wp147, 1 uM, down): −2.959 | logFC LIMK1 ([2]; experiment wp147, 2 uM, down): −2.2 | logFC LIMK1 ([2]; experiment wp147, 4 uM, down): −0.637

Cc1ccc(NC(=O)c2cccc(C(F)(F)F)c2)cc1N1Cc2cnc(Nc3ccc(N4CCN(CCCCC(=O)N[C@H](C(=O)N5C[C@H](O)C[C@H]5C(=O)N[C@@H](C)c5ccc(-c6scnc6C)cc5)C(C)(C)C)CC4)nc3)nc2N(C)C1=O [DB1113]
logFC MAP4K2 (Q12851) ([4]; Experiment wp168): −2.432 | logFC ([4]; experiment wp168): −2.432 | logFC LIMK1 ([2]; direction down, experiment wp168): −1.144 | logFC LIMK1 ([2]; experiment wp168, down): −1.144

CCc1cnn2c(N(Cc3ccc(N)nc3)C(=O)CCOCCOCCOCCNC(=O)CNc3cccc4c3C(=O)N(C3CCC(=O)NC3=O)C4=O)cc(N3CCCC[C@H]3CCO)nc12 (some centres unmarked) [MFH.5.115.2]
logFC [5]: −0.5159 | logFC BUB1 (O43683) [5]: −0.5159 | logFC UHMK1 [6, 12]: −0.8774 | logFC UHMK1 ([6]; UHMK1 (Q8TAS1)): −0.8774

Cc1ccc(C(=O)Nc2ccc(CN3CCN(CCOCCOCCNC(=O)CNc4cccc5c4C(=O)N(C4CCC(=O)NC4=O)C5=O)CC3)c(C(F)(F)F)c2)cc1C#Cc1cnc2cccnn12 (centres unmarked) [TL13.150]
logFC MAP4K2 (Q12851) ([4]; Experiment wp081): −1.088 | logFC ([4]; experiment wp081): −1.088

C=CCn1c(=O)c2cnc(Nc3ccc(N4CCN(CCCNc5cccc6c5C(=O)N(C5CCC(=O)NC5=O)C6=O)CC4)cc3)nc2n1-c1cccc(C(C)(C)O)n1 (centres unmarked) [ZNL.02.096]
logFC MKNK2 (Q9HBH9-1) ([7]; Experiment wp118): −0.4751 | logFC ([7]; experiment wp118): −0.4751

Cc1ccc(NC(=O)c2cccc(C(F)(F)F)c2)cc1N1Cc2cnc(Nc3ccc(N4CCN(CCCCCCOc5cccc6c5C(=O)N(C5CCC(=O)NC5=O)C6=O)CC4)nc3)nc2N(C)C1=O (centres unmarked) [DB0663]
logFC MAP4K2 (Q12851) ([4]; Experiment wp046): −0.3823 | logFC ([4]; experiment wp045): −0.3823 | logFC MKNK2 (Q9HBH9-1) ([7]; Experiment wp045): −0.4798 | logFC ([7]; experiment wp045): −0.4798

Cc1ccc(C(=O)Nc2ccc(CN3CCN(CCCOCCOCCOCCNC(=O)COc4cccc5c4C(=O)N(C4CCC(=O)NC4=O)C5=O)CC3)c(C(F)(F)F)c2)cc1C#Cc1cnc2cccnn12 (centres unmarked) [SB1.G.187]
logFC MAP4K2 (Q12851) ([4]; Experiment wp056): −1.847 | logFC MAP4K2 (Q12851) ([4]; Experiment wp103): −1.79 | logFC MAP4K2 (Q12851) ([4]; Experiment wp105): −1.757 | logFC MAP4K2 (Q12851) ([4]; Experiment wp107): −2.048 | logFC MAP4K2 (Q12851) ([4]; Experiment wp114): −0.7516 | logFC ([4]; experiment wp056): −1.847 | logFC ([4]; experiment wp103): −1.79 | logFC ([4]; experiment wp105): −1.757 | logFC ([4]; experiment wp107): −2.048 | logFC ([4]; experiment wp114): −0.7516 | logFC of CDK17 ([3]; experiment wp172): −0.3562 | logFC CDK17 (Q00537) ([3]; experiment wp172): −0.3562

CC(C)S(=O)(=O)c1ccccc1Nc1nc(Nc2ccc(N3CCN(CCOCCNC(=O)CNc4cccc5c4C(=O)N(C4CCC(=O)NC4=O)C5=O)CC3)cc2)ncc1Cl (centres unmarked) [SK-3-91]
BUB1 degradation ([5]; MOLT-4 and MM.1S cell lines): degraded

Cc1ncsc1-c1ccc([C@H](C)NC(=O)[C@@H]2C[C@@H](O)CN2C(=O)[C@@H](NC(=O)CCCCCN2CCN(c3ccc(Nc4ncc5scc(-c6cccc(NS(C)(=O)=O)c6)c5n4)cc3)CC2)C(C)(C)C)cc1 [RSS0680, (2S,4R)-1-((S)-3,3-Dimethyl-2-(6-(4-(4-((7-(3-(methylsulfonamido)phenyl)thieno[3,2-d]pyrimidin-2-yl)amino)phenyl)piperazin-1-yl)hexanamido)butanoyl)-4-hydroxy-N—((S)-1-(4-(4-methylthiazol-5yl)phenyl)ethyl)pyrrolidine-2-carboxamide]
logFC [1]: −1.017 and −1.219 | logFC CDK7 ([1]; experiment wp080): −1.017 | logFC CDK7 ([1]; experiment wp117): −1.219 | logFC MKNK2 (Q9HBH9-1) ([7]; Experiment wp080): −0.4987 | logFC MKNK2 (Q9HBH9-1) ([7]; Experiment wp117): −0.5075 | logFC ([7]; experiment wp080): −0.4987 | logFC ([7]; experiment wp117): −0.5075 | logFC of CDK17 ([3]; experiment wp080): −0.7875 | logFC of CDK17 ([3]; experiment wp117): −0.7193 | logFC CDK17 (Q00537) ([3]; experiment wp080): −0.7875 | logFC CDK17 (Q00537) ([3]; experiment wp117): −0.7193

O=C1CCC(N2C(=O)c3cccc(NCCCCCCCCN4CCC(NC(=O)c5[nH]ncc5NC(=O)c5c(Cl)cccc5Cl)CC4)c3C2=O)C(=O)N1 (centres unmarked) [MFH.5.126.1]
logFC [5]: −0.9248 | logFC BUB1 (O43683) [5]: −0.9248 | logFC UHMK1 [6, 12]: −0.4789 | logFC UHMK1 ([6]; UHMK1 (Q8TAS1)): −0.4789 | logFC of CDK17 ([3]; experiment wp076): −0.5894 | logFC CDK17 (Q00537) ([3]; Experiment wp076): −0.5894

CC(C)(C)c1nc(-c2cccc(NS(=O)(=O)c3c(F)cccc3F)c2F)c(-c2ccnc(NCCOCCNC(=O)CCOCCOCCNc3cccc4c3CN(C3CCC(=O)NC3=O)C4=O)n2)s1 (centres unmarked) [DD.03.107]
logFC LIMK1 ([2]; direction down, experiment wp056): −0.9594 | logFC LIMK1 [2, 8]: −1.222 | logFC LIMK1 [2, 9]: −0.9691 | logFC LIMK1 [2, 10]: −1.375 | logFC LIMK1 [2, 11]: −1.536 | logFC LIMK1 ([2]; experiment wp056, down): −0.9594 | logFC LIMK1 ([2]; experiment wp137, down): −1.222 | logFC LIMK1 ([2]; experiment wp147, 1 uM, down): −0.9691 | logFC LIMK1 ([2]; experiment wp147, 2 uM, down): −1.375 | logFC LIMK1 ([2]; experiment wp147, 4 uM, down): −1.536
